We go through ten molecules from publication PMC2844763 (Bioorganic & medicinal chemistry letters, 2010).

“Also recorded” adds a separate entry of the source.

In assay [1] the target is E. coli MetAP (Escherichia coli, UniProt P0AE18). Nature of the assay: cell-based MetAP assay. Particulars: Ca(II) treated cells; result in words.
For assay [2], the system named is E. coli AS19 strain. Particulars: result in words; ref [11] and [16]; cited from earlier work.
Assay [3] deals with E. coli MetAP in the Fe(II)-form. Particulars: result in words; ref [11] and [16]; cited from earlier work.
The test system of assay [4] is MetAP in the Co(II)-form. Particulars: result in words; ref [10]; cited from earlier work.

Chain of E. coli MetAP (P0AE18 whole entry): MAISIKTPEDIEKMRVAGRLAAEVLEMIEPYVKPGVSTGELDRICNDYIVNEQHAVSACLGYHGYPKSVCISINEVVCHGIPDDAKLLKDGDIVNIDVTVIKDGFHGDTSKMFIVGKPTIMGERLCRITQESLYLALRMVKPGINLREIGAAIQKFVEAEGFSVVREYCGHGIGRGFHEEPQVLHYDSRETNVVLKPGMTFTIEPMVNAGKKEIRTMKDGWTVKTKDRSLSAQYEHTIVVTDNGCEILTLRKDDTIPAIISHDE

In the case of `Cc1nc(-c2ccc(O)c(O)c2)cs1` [compound 1], the “inhibition of intracellular Met-AMC hydrolysis (cellular MetAP activity)” value (“inhibition … (cellular MetAP activity)” for short) in assay [1] was “displayed inhibition; also recorded: inhibited in a time-dependent fashion”.

`COc1ccc(-c2csc(C)n2)cc1OC` [compound 2]: the “inhibition … (cellular MetAP activity)” value in assay [1] is “decreased potency”.

For the molecule `Cc1nc(-c2cccc(O)c2)cs1` [compound 3], in assay [1], the “inhibition … (cellular MetAP activity)” value is listed as “no inhibition”.

Take `Cc1nc(-c2ccc(O)cc2O)cs1` [compound 4]: in assay [1], the “inhibition … (cellular MetAP activity)” value is reported as “no inhibition”.

Regarding `O=C(NC1CC1)c1ccc(-c2ccc(O)c(O)c2)s1` [compound 22], the “inhibition … (cellular MetAP activity)” value in assay [1] is on record as “exceptions”.

With `O=C(NC1CC1)c1ccsc1-c1ccc(O)c(O)c1` [compound 23], the “inhibition … (cellular MetAP activity)” value in assay [1] was “exceptions”.

On to `O=C(O)c1ccc(-c2ccccc2Cl)o1` [compound 28], for which the “inhibition of bacterial growth” value in assay [2] is recorded as “did not halt bacterial growth”. Further, the “inhibition of purified MetAP in the Fe(II)-form” value (“inhibition of purified MetAP” below) in assay [3] is “weak inhibition”.

For the molecule `O=C(O)c1ccc(-c2cc(Cl)ccc2Cl)o1` [compound 29], in assay [2], the “inhibition of bacterial growth” value is reported as “did not halt bacterial growth”. For the same molecule, the “inhibition of purified MetAP” value in assay [3] is listed as “weak inhibition”.

Consider `O=C(Nc1nccs1)C(=O)NC1CCCC1` [compound 30], for which the “potency and selectivity towards purified MetAP in the Co(II)-form” value in assay [4] is “highly potent and selective”. Moreover, the “inhibition of bacterial growth” value in assay [2] is given as “did not halt bacterial growth”. The “inhibition … (cellular MetAP activity)” value in assay [1] is listed as “no inhibition”. Also, in assay [3], the “inhibition of purified MetAP” value was “weak inhibition”.

For the molecule `O=C(NCc1ccccn1)C(=O)Nc1nccs1` [compound 31], in assay [4], the “potency and selectivity towards purified MetAP in the Co(II)-form” value is “highly potent and selective”. Further, the “inhibition of bacterial growth” value in assay [2] is listed as “did not halt bacterial growth”. The “inhibition … (cellular MetAP activity)” value in assay [1] is “no inhibition”. Further, the “inhibition of purified MetAP” value in assay [3] was “weak inhibition”.
